US20030003492A1, “Colorimetric nanocrystal sensors, methods of making, and use thereof” (priority 2001, published 2003)

Assays:
[1] = Binding to simple sugars like glucosamine; settings: much lower affinity than for lipid A
Binding to lipid A = settings: binding of lipid A; read-out: dissociation constant

tetratryptophan ter-cyclopentane [TWTCP]
Kd [1]: ~20 µM
Kd (Binding to lipid A): 0.592 µM
